Values quoted from earlier work as cited in US20020012634A1, “Antimicrobial dental materials contraining 2,4,4' -trichloro2' -hydroxydiphenyl ether” (priority 1997, published 2002).

Experiments:
bacteria = conditions: long-term experiments
[1] = tested on: Gram-positive and Gram-negative bacteria as well as fungi, yeasts and viruses
plaque bacteria = conditions: toothpaste ingredient, dentifrices

## Oc1cc(Cl)ccc1Oc1ccc(Cl)cc1Cl [triclosan, 2,4,4′-trichloro-2′-hydroxydiphenyl ether]
other
  solubility in organic solvents: soluble in many organic solvents
  water solubility: low
bacteria
  development of bacterial resistance: no development of bacterial resistance
[1]
  antimicrobial activity, in words: highly effective antimicrobial with a broad spectrum of activity
Plaque bacteria
  effect against plaque bacteria / plaque: effective against plaque bacteria
